Data from paper PMC10120551, “Novel Glu-based pyrazolo[3,4-d]pyrimidine analogues: design, synthesis and biological evaluation as DHFR and TS dual inhibitors” (Journal of Enzyme Inhibition and Medicinal Chemistry, 2023).

Key:
[1] = test system: COLO 205; test: cells; details: Homo sapiens
[2] = test system: M14; details: M14, Melanoma; five-dose 0.01–100 µM
[3] = test system: HCC-2998; test: cells; details: Homo sapiens
[4] = test system: HOP-92; test: cells; details: Homo sapiens
[5] = test system: 786-0; test: cells; details: Homo sapiens
[6] = test system: IGROV1; test: cells; details: Homo sapiens
[7] = test system: ACHN; details: Renal cancer, five-dose 0.01–100 µM
[8] = test system: OVCAR-8; test: NCI one-dose screen (SRB); assay type: cell-based, human; details: OVCAR-8, Ovarian; 10 µM single dose
Method: (§1) The growth percentage (G%) and cell viability of the herein target compounds 6a–l, 7a,b, and 9a–c have been screened towards a full panel of 59 cancer cells at NCI’s Developmental Therapeutics Program (NCI-DTP, MD, USA)[21]. The submitted analogues were initially examined for preliminary in vitro anticancer activity using sulforhodamine B (SRB) assay at 10 µM as a single dose to evaluate cell growth and viability according to the procedure of Drug Evaluation Branch[22]^,[23].
(§2) Different types of tumours – colon, NSCLC, leukaemia, CNS, renal, breast, ovarian, melanoma, and prostate cancers – were investigated as a full panel of 59 cell lines, and the attained results are cited in Figures S1–S17 (see Supplementary Material) where the value recorded is the growth relative to that of both the negative control and zero-time number of cells in which both growth inhibition (GI%; 0–100%) and lethality (L%; 0–100%) percentages can be identified. The growth inhibition means percentages (MGI%) for the examined target analogues towards the different treated 59 cancer cells were presented in Figure 2.
(§3) The designed analogues were submitted to NCI-Chemotherapeutic Agents Repository (MD, USA) for screening on a panel of 59 cancer cell lines. All compounds were initially examined at 10 µM concentration (Single-Dose Screen), and then the most efficient analogue 6i was screened further at 0.01–100 µM (Five-Dose Screen). The screening procedures were performed according to NCI-Drug Evaluation Branch protocol using SRB protein assay, as described previously[21]^,[66]. The experimental procedures were detailed in the Supporting Information.

[9] = test system: 786-0; test: NCI one-dose screen (SRB); assay type: cell-based, human; details: 786-0, Renal; 10 µM single dose
Method: as §1, §2, §3

[10] = test system: SN12C; test: NCI one-dose screen (SRB); assay type: cell-based, human; details: Renal cancer, 10 µM single dose
Method: as §1, §2, §3

[11] = test system: UACC-62; test: NCI one-dose screen (SRB); assay type: cell-based, human; details: UACC-62, Melanoma; 10 µM single dose
Method: as §1, §2, §3

[12] = test system: SW-620; test: NCI one-dose screen (SRB); assay type: cell-based, human; details: SW-620, Colon cancer; 10 µM single dose
Method: as §1, §2, §3

[13] = test system: HCT-116; test: NCI one-dose screen (SRB); assay type: cell-based, human; details: HCT-116, Colon cancer; 10 µM single dose
Method: as §1, §2, §3

[14] = test system: DU-145; test: NCI one-dose screen (SRB); assay type: cell-based, human; details: DU-145, Prostate; 10 µM single dose
Method: as §1, §2, §3

[15] = test system: SK-MEL-28; test: NCI one-dose screen (SRB); assay type: cell-based, human; details: SK-MEL-28, Melanoma; 10 µM single dose
Method: as §1, §2, §3

[16] = test system: EKVX; test: NCI one-dose screen (SRB); assay type: cell-based, human; details: NSCLC, 10 µM single dose
Method: as §1, §2, §3

[17] = test system: SNB-19; test: NCI one-dose screen (SRB); assay type: cell-based, human; details: SNB-19, CNS cancer; 10 µM single dose
Method: as §1, §2, §3

[18] = test system: A549/ATCC; test: NCI one-dose screen (SRB); assay type: cell-based, human; details: NSCLC, 10 µM single dose
Method: as §1, §2, §3

[19] = test system: MCF7; test: NCI one-dose screen (SRB); assay type: cell-based, human; details: MCF7, Breast; 10 µM single dose
Method: as §1, §2, §3

[20] = test system: HOP-62; test: NCI one-dose screen (SRB); assay type: cell-based, human; details: HOP-62, NSCLC; 10 µM single dose
Method: as §1, §2, §3

[21] = test system: SK-MEL-5; test: NCI one-dose screen (SRB); assay type: cell-based, human; details: SK-MEL-5, Melanoma; 10 µM single dose
Method: as §1, §2, §3

[22] = test system: RPMI-8226; test: NCI one-dose screen (SRB); assay type: cell-based, human; details: RPMI-8226, Leukaemia; 10 µM single dose
Method: as §1, §2, §3

[23] = test system: HT29; test: NCI one-dose screen (SRB); assay type: cell-based, human; details: HT29, Colon cancer; 10 µM single dose
Method: as §1, §2, §3

[24] = test system: NCI/ADR-RES; test: NCI one-dose screen (SRB); assay type: cell-based, human; details: Ovarian cancer, 10 µM single dose
Method: as §1, §2, §3

[25] = test system: HS 578 T; test: NCI one-dose screen (SRB); assay type: cell-based, human; details: Breast cancer, 10 µM single dose
Method: as §1, §2, §3

[26] = test system: M14; test: NCI one-dose screen (SRB); assay type: cell-based, human; details: M14, Melanoma; 10 µM single dose
Method: as §1, §2, §3

[27] = test system: RXF 393; test: NCI one-dose screen (SRB); assay type: cell-based, human; details: RXF 393, Renal; 10 µM single dose
Method: as §1, §2, §3

[28] = test system: NCI-H23; test: NCI one-dose screen (SRB); assay type: cell-based, human; details: NCI-H23, NSCLC; 10 µM single dose
Method: as §1, §2, §3

[29] = test system: SF-539; test: NCI one-dose screen (SRB); assay type: cell-based, human; details: SF-539, CNS cancer; 10 µM single dose
Method: as §1, §2, §3

[30] = test system: BT-549; test: NCI one-dose screen (SRB); assay type: cell-based, human; details: BT-549, Breast cancer; 10 µM single dose
Method: as §1, §2, §3

[31] = test system: KM12; details: KM12, Colon cancer; five-dose 0.01–100 µM
[32] = test system: 786-0; details: 786-0, Renal cancer; five-dose 0.01–100 µM
[33] = test system: M14; test: cells; details: Homo sapiens

Work on `CCOC(=O)CC[C@H](NC(=O)c1ccc(NC(=O)Cn2cnc3c(c(C)nn3-c3ccc(Br)cc3)c2=O)cc1)C(=O)OCC` [Compound 6i] yielded a GI50 ([1]; COLO 205) of 14 µM, a CC50 ([1]; COLO 205, read-out: LC50) of 96 µM and a TGI [2] of over 100 µM. The GI50 ([3]; HCC 2998) was 35.1 µM, the CC50 ([3]; HCC 2998, read-out: LC50) was over 100 µM and the GI50 ([4]; HOP-92) was 6.01 µM. The CC50 ([4]; HOP-92, read-out: LC50) was 66.2 µM, the GI50 ([5]; 786-0) was 8.66 µM and the CC50 ([5]; 786-0, read-out: LC50) was over 100 µM. For the same compound, the GI50 ([6]; IGROV-1) was 23.9 µM, the CC50 ([6]; IGROV-1, read-out: LC50) was over 100 µM and the TGI [7] was 34.3 µM. For the same compound, the GI% [8] was 87.86%, the GI% [9] was 82.93% and the GI% [10] was 57.69%. For the same compound, the GI% [11] was 63.82%, the GI% [12] was 62.17% and the GI% [13] was 70.04%. For the same compound, the GI% [14] was 85.62%, the GI% [15] was 75.54% and the GI% [16] was 78.12%. The GI% [17] was 61.23%, the GI% [18] was 71.36% and the GI% [19] was 97.72%. For the same compound, the “L% (lethality)” value [20] was 8.41%, the “L% (lethality)” value [21] was 1.38% and the GI% [22] was 53.52%. It also gave a GI% [23] of 59.90%, a GI% [24] of 51.78% and a GI% [25] of 75.80%. The GI% [26] was 74.15%, the “L% (lethality)” value [27] was 22.73% and the GI% [28] was 87.19%. It also gave a GI% [29] of 54.23%, a GI% [30] of 66.64% and a TGI [31] of over 100 µM. For the same compound, the TGI [32] was over 100 µM, the GI50 ([33]; M14) was over 100 µM and the CC50 ([33]; M14, read-out: LC50) was over 100 µM.
